Reference: patent US9315490B2, “2,5-substituted pyrimidines” (Grünenthal GmbH, priority 2014, dated 2016)

Molecular target: T1, human PDE4B1 (Homo sapiens, UniProt Q07343)
T1 construct: host or cells: Sf9 cells
Test: cAMP HTRF assay to determine the activity of hPDE4B1
Format: biochemical
Details: inhibition of PDE4B at a test concentration of 1 μM
Protocol: Biological Testing cAMP HTRF® Assay to Determine the Activity of hPDE4B1
The inhibiting effect of the compounds on the enzyme activity of human PDE4B1 was measured by the quantification of 5′-adenosine monophosphate (5′-AMP), which is formed from 3′,5′-cyclic adenosine monophosphate (cAMP). Human recombinant enzyme, expressed in Sf9 cells, and the HTRF (homogeneous time-resolved fluorescence) detection method were used in the assay.
The test compound or water (control) was mixed with the human recombinant PDE4B1 enzyme (4.8 U) in a buffer consisting of 44.4 mM tris-HCl, 5.28 mM MgCl2, 2.64 mM DTT and 0.044% Tween 20 (pH 7.8). After adding the cAMP enzyme substrate (final concentration 40 nM), the mixture was incubated for 30 minutes at room temperature. Then a fluorescence acceptor (Dye2 marked with cAMP), a fluorescence donor (anti-cAMP antibody marked with a europium cryptate) and the non-specific phosphodiesterase inhibitor IBMX (3-isobutyl-1-methylxanthine; final concentration 1 mM) were added. After 60 minutes the fluorescence transfer, which correlates with the amount of remaining cAMP, was measured with a microplate reader (Rubystar, BMG) at λex=337 nm, λem=620 nm and λem=665 nm. The enzyme activity was calculated from the quotient formed from the measured signal at 665 nm and that at 620 nm. The result was expressed as the percentage inhibition of enzyme activity of the control (without PDE4 inhibitor). The enzyme was omitted for measurement of the basal control. IC50 values (IC50=concentration causing a half-maximal inhibition of control specific activity) were derived from dose response measurements with eight different concentrations (n=2; N=1-3).
Literature: N. Saldou et al., Comparison of recombinant human PDE4 isoforms: interaction with substrate and inhibitors, Cell. Signal. Vol. 10, No. 6, 427-440, 1998

T1 sequence (Q07343 whole entry): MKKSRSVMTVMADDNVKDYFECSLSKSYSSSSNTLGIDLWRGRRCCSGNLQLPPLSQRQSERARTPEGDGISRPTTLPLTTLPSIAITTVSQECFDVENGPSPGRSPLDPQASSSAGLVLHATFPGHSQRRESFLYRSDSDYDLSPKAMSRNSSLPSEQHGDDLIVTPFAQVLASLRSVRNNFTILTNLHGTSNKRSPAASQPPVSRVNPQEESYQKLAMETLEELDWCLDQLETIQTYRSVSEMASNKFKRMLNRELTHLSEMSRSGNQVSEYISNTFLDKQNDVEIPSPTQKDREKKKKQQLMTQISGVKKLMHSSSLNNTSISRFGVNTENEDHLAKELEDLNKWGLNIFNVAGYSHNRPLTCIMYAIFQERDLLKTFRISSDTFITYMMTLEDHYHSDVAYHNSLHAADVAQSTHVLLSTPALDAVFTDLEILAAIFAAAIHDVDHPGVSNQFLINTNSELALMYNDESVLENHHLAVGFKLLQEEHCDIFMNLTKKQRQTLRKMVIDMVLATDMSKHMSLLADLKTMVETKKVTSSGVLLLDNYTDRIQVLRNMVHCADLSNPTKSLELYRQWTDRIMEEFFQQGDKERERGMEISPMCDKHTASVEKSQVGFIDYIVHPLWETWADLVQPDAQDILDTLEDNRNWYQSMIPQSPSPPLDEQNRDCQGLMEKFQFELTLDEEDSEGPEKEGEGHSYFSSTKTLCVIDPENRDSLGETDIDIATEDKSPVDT

inhibition at 1 µM [%]	Inhibition in % (1 µM) [%]	SMILES	other results
98		Cc1cccc(-c2cnc(-n3cc([S+](C)[O-])c4ccc(C(=O)N5CCOCC5)cc43)nc2)c1 (single isomer, unassigned) [Example 154, (3-(Methylsulfinyl)-1-(5-(m-tolyl)pyrimidin-2-yl)-1H-indol-6-yl)(morpholino)methanone]	
	97	Cc1cccc(-c2cnc(-n3cc([S+](C)[O-])c4ccc(C(=O)N5CCOCC5)cc43)nc2)c1 (single isomer, unassigned) [Example 155, (3-(Methylsulfinyl)-1-(5-(m-tolyl)pyrimidin-2-yl)-1H-indol-6-yl)(morpholino)methanone]	
104		C[S+]([O-])c1cn(-c2ncc(-c3ccccc3)cn2)c2cc(C(=O)N3CCOCC3)ccc12 (single isomer, unassigned) [Example 163, (3-(Methylsulfinyl)-1-(5-phenylpyrimidin-2-yl)-1H-indol-6-yl)(morpholino)methanone]	
	92	C[S+]([O-])c1cn(-c2ncc(-c3ccccc3)cn2)c2cc(C(=O)N3CCOCC3)ccc12 (single isomer, unassigned) [Example 164, (3-(Methylsulfinyl)-1-(5-phenylpyrimidin-2-yl)-1H-indol-6-yl)(morpholino)methanone]	
105		C[S+]([O-])c1cn(-c2ncc(-c3ccccc3F)cn2)c2cc(C(=O)N3CCOCC3)ccc12 (single isomer, unassigned) [Example 165, (1-(5-(2-Fluorophenyl)pyrimidin-2-yl)-3-(methylsulfinyl)-1H-indol-6-yl)(morpholino)methanone]	
	93	C[S+]([O-])c1cn(-c2ncc(-c3ccccc3F)cn2)c2cc(C(=O)N3CCOCC3)ccc12 (single isomer, unassigned) [Example 166, (1-(5-(2-Fluorophenyl)pyrimidin-2-yl)-3-(methylsulfinyl)-1H-indol-6-yl)(morpholino)methanone]	

Continued, compound first:

SMILES	inhibition at 1 µM [%]	Inhibition in % (1 µM) [%]	other results
Cc1ccnc(-c2cnc(-n3cc([S+](C)[O-])c4ccc(C(=O)N5CCOCC5)cc43)nc2)c1 (racemic) [Example 142, (1-(5-(4-methylpyridin-2-yl)pyrimidin-2-yl)-3-(methylsulfinyl)-1H-indol-6-yl)(morpholino)methanone]	110		
COc1cccc(-c2cnc(-n3cc([S+](C)[O-])c4ccc(C(=O)N5CCOCC5)cc43)nc2)c1 (single isomer, unassigned) [Example 157, (1-(5-(3-Methoxyphenyl)pyrimidin-2-yl)-3-(methylsulfinyl)-1H-indol-6-yl)(morpholino)methanone]		81	
COc1cccc(-c2cnc(-n3cc([S+](C)[O-])c4ccc(C(=O)N5CCOCC5)cc43)nc2)c1 (single isomer, unassigned) [Example 158, (1-(5-(3-Methoxyphenyl)pyrimidin-2-yl)-3-(methylsulfinyl)-1H-indol-6-yl)(morpholino)methanone]		104	
COc1ccc(F)c(-c2cnc(-n3cc([S+](C)[O-])c4ccc(C(=O)N5CCOCC5)cc43)nc2)c1 (single isomer, unassigned) [Example 160, (1-(5-(2-Fluoro-5-methoxyphenyl)pyrimidin-2-yl)-3-(methylsulfinyl)-1H-indol-6-yl)(morpholino)methanone]	107		
COc1ccc(F)c(-c2cnc(-n3cc([S+](C)[O-])c4ccc(C(=O)N5CCOCC5)cc43)nc2)c1 (single isomer, unassigned) [Example 161, (1-(5-(2-Fluoro-5-methoxyphenyl)pyrimidin-2-yl)-3-(methylsulfinyl)-1H-indol-6-yl)(morpholino)methanone]		109	
COc1ccc(F)c(-c2cnc(-n3cc([S+](C)[O-])c4ccc(C(=O)N5CCNC(=O)C5)cc43)nc2)c1 (single isomer, unassigned) [Example 213, 4-(1-(5-(2-Fluoro-5-methoxyphenyl)pyrimidin-2-yl)-3-(methylsulfinyl)-1H-indole-6-carbonyl)piperazin-2-one]	106		
COc1ccc(F)c(-c2cnc(-n3cc([S+](C)[O-])c4ccc(C(=O)N5CCNC(=O)C5)cc43)nc2)c1 (single isomer, unassigned) [Example 214, 4-(1-(5-(2-Fluoro-5-methoxyphenyl)pyrimidin-2-yl)-3-(methylsulfinyl)-1H-indole-6-carbonyl)piperazin-2-one]		92	
Cc1cccc(-c2cnc(-n3cc([S+](C)[O-])c4ccc(C(=O)N5CCNC(=O)C5)cc43)nc2)c1 (single isomer, unassigned) [Example 215, 4-(3-(Methylsulfinyl)-1-(5-(m-tolyl)pyrimidin-2-yl)-1H-indole-6-carbonyl)piperazin-2-one]	110		
Cc1cccc(-c2cnc(-n3cc([S+](C)[O-])c4ccc(C(=O)N5CCNC(=O)C5)cc43)nc2)c1 (single isomer, unassigned) [Example 216, 4-(3-(Methylsulfinyl)-1-(5-(m-tolyl)pyrimidin-2-yl)-1H-indole-6-carbonyl)piperazin-2-one]		94	
COc1cccc(-c2cnc(-n3cc([S+](C)[O-])c4ccc(C(=O)N5CCNC(=O)C5)cc43)nc2)c1 (single isomer, unassigned) [Example 217, 4-(1-(5-(3-Methoxyphenyl)pyrimidin-2-yl)-3-(methylsulfinyl)-1H-indole-6-carbonyl)piperazin-2-one]	109		
COc1cccc(-c2cnc(-n3cc([S+](C)[O-])c4ccc(C(=O)N5CCNC(=O)C5)cc43)nc2)c1 (single isomer, unassigned) [Example 218, 4-(1-(5-(3-Methoxyphenyl)pyrimidin-2-yl)-3-(methylsulfinyl)-1H-indole-6-carbonyl)piperazin-2-one]		98	
CC(O)c1cn(-c2ncc(-c3ccccc3F)cn2)c2cc(C(=O)N3CCOCC3)ccc12 (single isomer, unassigned) [Example 252, (1-(5-(2-Fluorophenyl)pyrimidin-2-yl)-3-(1-hydroxyethyl)-1H-indol-6-yl)(morpholino)methanone]		97	
CC(O)c1cn(-c2ncc(-c3ccccc3F)cn2)c2cc(C(=O)N3CCOCC3)ccc12 (single isomer, unassigned) [Example 253, (1-(5-(2-Fluorophenyl)pyrimidin-2-yl)-3-(1-hydroxyethyl)-1H-indol-6-yl)(morpholino)methanone]		120	
CC(O)c1cn(-c2ncc(-c3ccccc3)cn2)c2cc(C(=O)N3CCOCC3)ccc12 (single isomer, unassigned) [Example 254, (3-(1-Hydroxyethyl)-1-(5-phenylpyrimidin-2-yl)-1H-indol-6-yl)(morpholino)methanone]	95		
CC(O)c1cn(-c2ncc(-c3ccccc3)cn2)c2cc(C(=O)N3CCOCC3)ccc12 (single isomer, unassigned) [Example 255, (3-(1-Hydroxyethyl)-1-(5-phenylpyrimidin-2-yl)-1H-indol-6-yl)(morpholino)methanone]			Inhibition in %: 95%
CC1CC(C)CN(C(=O)c2ccc3c([S+](C)[O-])cn(-c4ncc(-c5ccccc5F)cn4)c3c2)C1 (single isomer, unassigned) [Example 372, (3,5-Dimethylpiperidin-1-yl)(1-(5-(2-fluorophenyl)pyrimidin-2-yl)-3-(methylsulfinyl)-1H-indol-6-yl)methanone]	40		
